Seven molecules from patent publication US20130047297A1, “POLYNUCLEOTIDE MOLECULES FOR GENE REGULATION IN PLANTS” (priority 2010, published 2013) can be followed below.

For data set [1], the system named is Glyphosate-resistant Palmer amaranth plants having 49 or 63 copies EPSPS. The data set is described as follows: Salicylic acid pretreatment with dsRNA and glyphosate (Example 15). It counts as in vivo. The note with it: 15 millimolar SA 1, 5, or 24 hours before dsRNA; glyphosate 72 hours later; 7 days after glyphosate. The method, then: Salicylic acid (SA) induces virus resistance in tobacco; see, e. g., Chivasa et al. (1997) Plant Cell, 19:547-557. Glyphosate-resistant Palmer amaranth plants having 49 or 63 copies EPSPS were pretreated with 15 millimolar SA. A solution of the four oligonucleotide-size “short” EPSPS dsRNA molecules (described in Example 1) was applied by hand at 1, 5, or 24 hours after treatment with SA, followed 72 hours later by spraying with glyphosate (1682 g acid equivalent per hectare of Roundup® WeatherMAX® brand herbicide).

Data set [2] deals with detached leaves of glyphosate-resistant Palmer amaranth. The data set is described as follows: Petiole uptake of fluorescently labelled ssDNA oligonucleotide in detached leaves (Example 9). Also on record: species or system Amaranthus palmeri. On the procedure:
Petioles of detached leaves of glyphosate-resistant Palmer amaranth were placed in 200 mM sucrose solution with fluorescently labelled ssDNA oligonucleotides (SEQ ID NO:15). Leaf images were taken by Bio-Rad PharosFX imager equipped with a 488 nm laser from 4 h up to 48 h after uptake through petiole. Leaves incubated with 200 mM sucrose alone served as control.

For data set [3], the system named is phytoene desaturase (PDS) gene in lettuce (Lactuca sativa). Kind of data set: Topical PDS ssDNA on lettuce, bleaching (Example 24). It counts as in vivo. Conditions: 8 nanomoles polynucleotide per plant (mixture: 2 nanomoles each); observed at 4. On the procedure:
Lettuce variety LS49 “Green Tower” was used in the assays. Two fully expanded leaves of each plant were dipped into a freshly made 0.1% Silwet L-77 in double-distilled water solution for a few seconds. The leaves were allowed to dry for 15-30 minutes. Each plant was then treated by applying 20 microliters ssDNA solution to the top surface of two Silwet-treated leaves (total 40 microliters per plant). Table 9 lists the assay conditions used and the observed bleaching of plants topically treated with ssDNA polynucleotides.
The assays were repeated with 2 or 4 nanomoles ssDNA applied per plant.
The assays were repeated using each individual anti-sense ssDNAs (“HL287”, SEQ ID NO:55; “HL288”, SEQ ID NO:56; “HL289”, SEQ ID NO:57; and “HL290”, SEQ ID NO:58) with 8 nanomoles polynucleotide applied per plant; positive control plants were treated with a mixture of the four individual anti-sense ssDNAs at 2 nanomoles each (for a total of 8 nanomoles polynucleotide applied per plant) and negative control plants were treated only with buffer.

The test system of data set [4] is volunteer glyphosate-resistant corn plants. The data set is described as follows: Synthetic Pol III gene dsDNA on volunteer corn (Example 8). Type of data set: in vivo. Conditions: 0.1 wt % Silwet L-77 and dsDNA sprayed, glyphosate 7 days later; 15 days later. An excerpt:
(§1) This example illustrates the utility of employing a synthetic Pol III gene in compositions and methods of this invention. With reference to SEQ ID NO:3 and FIG. 2, a synthetic Pol III gene is created using elements from an Arabidopsis thaliana U6 snRNA gene to provide a dsDNA molecule with two copies of RGCCCR elements (bold and underlined), an upstream sequence element (USE) having the sequence “[…]” (SEQ ID NO:4, bold and underlined), a TATA box (bold and underlined), a “G” nucleotide (bold and underlined), anti-sense DNA (italics) corresponding to a bacterial DNA encoding an EPSPS protein (see U.S. Pat. No. RE39,247) that imparts resistance to glyphosate herbicide when expressed in transgenic corn plants, an “[…]” element (SEQ ID NO:5, bold and underlined) embedded in the anti-sense DNA, an “[…]” element (SEQ ID NO:6, bold and underlined) followed by sense DNA (lower case) and a “TTTTTT” terminator element (SEQ ID NO:7, bold and underlined). A solution of 0.1 wt % Silwet L-77 brand organosilicone surfactant and a solution of multiple copies of the dsDNA molecule are sprayed onto leaves of volunteer glyphosate-resistant corn plants growing in a field of glyphosate-resistant soybean plants, followed 7 days later by treatment with Roundup WeatherMAX® brand glyphosate herbicide. […]

The subject of data set [5] is glyphosate-resistant soybean plants. The data set is described as follows: Synthetic Pol III gene dsDNA, soybean crop (Example 8). The note with it: 0.1 wt % Silwet L-77 and dsDNA sprayed, glyphosate 7 days later; 15 days later. It counts as in vivo.
Text: as §1

In data set [6] the test system is phytoene desaturase (PDS) gene in tomato (Solanum lycopersicum). Kind of data set: Topical PDS dsRNA on tomato (Example 25). It counts as in vivo. The note with it: 2.5 micromolar dsRNA, 40 microliters per plant. An excerpt:
A 201 nucleotide dsRNA polynucleotide with an anti-sense strand capable of hybridizing to the RNA encoded by the sequence […] […] […] AG (SEQ ID NO:60) which correspond to the nucleotides at positions 1724-1923 of the mRNA transcribed from the tomato PDS gene sequence (SEQ ID NO:59) was synthesized by RT PCR using oligonucleotide primers with the sequences […] (SEQ ID NO:61, sense primer) and […] (SEQ ID NO:62, anti-sense primer). A 2.5 micromolar dsRNA solution was made with the 201 nucleotide dsRNA polynucleotide (SEQ ID NO:60) in 0.01% Silwet L-77 in 5 millimolar sodium phosphate buffer, pH 6.8.
Three-week old tomato seedlings were treated as follows. Two fully expanded leaves were dipped into a freshly made 0.1% Silwet L-77 solution in double-distilled water for a few seconds. The leaves were allowed to dry for 30 minutes to 1 hour. Each plant was then treated by applying 20 microliters dsRNA solution to the top surface of two Silwet-treated leaves (total 40 microliters per plant). Control plants were treated with buffer. The plants were kept in a growth chamber for observation. FIG. 30 depicts the systemic silencing of the target gene PDS as evidenced by bleaching of the dsRNA-treated plants 30 days after topical treatment.

{AF488} = Alexa Fluor 488 fluorescent label (Invitrogen)

For `O=C(O)c1ccccc1O` [SA, Salicylic acid], in data set [1], the “improvement of the effects of the dsRNAs and glyphosate activity (plant height)” value is on record as “No improvement”.

As for “Anti-sense_PO1_488: SEQ ID NO:15, 5′-labelled with Alexa Fluor 488 (antisense ACCCTCCACGACTGCCCTTT; DNA, 5' {AF488}, backbone not given here; listed as Amaranthus palmeri)”, the distribution in leaf result in data set [2] (at 24 h and 48 h) was “accumulate at the leaf edge”. Also, the “vascular uptake into leaf” value in data set [2] (petiole in 200 mM sucrose, imaged 4 h up to 48 h) was “slightly time-dependent vascular uptake”. For the same molecule, the “release from vascular tissue into cells, as early as (time after treatment)” value in data set [2] (petiole uptake) is recorded as 8 h. Consider “HL288: SEQ ID NO:56, anti-sense ssDNA, lettuce PDS (antisense CCATTCAATGGTGCAGGTAAAAC; DNA, backbone not given here)”, for which the “systemic silencing (FIG. 29B)” value in data set [3] was “systemic silencing evidenced by bleaching”. The same measure, in the same setting: in the case of “HL289: SEQ ID NO:57, anti-sense ssDNA, lettuce PDS (antisense CATAGAATGCTCCTTCCACTG; DNA, backbone not given here)” it was “systemic silencing evidenced by bleaching”; in that of “HL290: SEQ ID NO:58, anti-sense ssDNA, lettuce PDS (antisense CAAATAAATTTTGTACATTTGGGTAAGCTCCAA; DNA, backbone not given here)”, “systemic silencing evidenced by bleaching”.

B1: synthetic Pol III gene: dsDNA, SEQ ID NO:3, U6 snRNA elements with anti-sense and sense DNA of bacterial EPSPS (nucleic acid)
DNA: GGCCCATAGGCCTTTTTCTAAAATAGGCCCATTTAAGCTATTAACAATCTTCAAAAGTACCACATCGCTTAGGTAAAGAAAGCAGCTGAGTTTATATATGGTTAGAGACGAAGTAGTGATTGCGACGAGCGACGTCTCGCCCTCATCGCAATCCACGCCATTGAGCTTGAGGCCATTGGCGACGGCCGAGAGGCGGTCGCTTAAGATTAGCATGTCCTTGACGCGGAGTTCTTCCAGACCGTTCATCACGGTCGCCCCTTCCGCGAAGGCGGCGGCGACAGCGAGAATCGGATATTCGTCGATCATCGAAGGCGCGCGGTCTTCCGGCACCGTGACGCATAAACACGGTGCCGGAAGACCGCGCGCCTTCGATGATCGACGAATATCCGATTCTCGCTGTCGCCGCCGCCTTCGCGGAAGGGGCGACCGTGATGAACGGTCTGGAAGAACTCCGCGTCAAGGAAAGCGACCGCCTCTCGGCCGTCGCCAATGGCCTCAAGCTCAATGGCGTGGATTGCGATGAGGGCGAGACGTCGCTCGTCGTTTTTTTTGGCAAAAA
For B1, the corn plant outcome in data set [4] is recorded as “dead”. Moreover, the soybean plant outcome in data set [5] was “thriving”.

B2: 201 nucleotide dsRNA polynucleotide: dsRNA to SEQ ID NO:60, positions 1724-1923 of tomato PDS mRNA (nucleic acid)
sense: TCGCAGCGACTCAGAAATTATTGATGCAACGATGAAGGAACTAGCAACGCTTTTTCCTGATGAAATTTCAGCAGATCAAAGCAAAGCAAAAATATTGAAGTACCATGTTGTCAAAACTCCGAGGTCTGTTTATAAAACTGTGCCAGGTTGTGAACCCTGTCGGCCTTTACAAAGATCCCCAATAGAGGGGTTTTATTTAG
modifications: complementary strand
Take B2: the “plant growth compared to control plants” value in data set [6] is reported as “severely stunted”. The “systemic silencing of PDS (FIG. 30)” value in data set [6] (30 days after topical treatment) was “bleaching”.
